In US12246076B2, “Radiolabeled compounds for in vivo imaging of gastrin-releasing peptide receptor (GRPR) and treatment of GRPR-related disorders” (PROVINCIAL HEALTH SERVICES AUTHORITY, priority 2022, dated 2025):

Molecular target: T1, GRPR (Homo sapiens, UniProt P30550)
T1 construct: endogenous in cells; host or cells: PC-3 prostate cancer cells
Assay: In vitro competition binding assay, displacement of [^125I-Tyr^4]bombesin on GRPR-expressing PC-3 cells
Settings: n = 2-3, read-out: Binding affinities Ki Mean
Procedure: PC-3 cells were seeded at 2×10^5 cells/well in 24-well poly-D-lysine plates 24-48 hours prior to the experiment. The growth medium was replaced by 400 μL of reaction medium (RPMI 1640 containing 2 mg/mL BSA, 4.8 mg/mL HEPES, 1 U/mL penicillin G and 1 μg/mL streptomycin). Cells were incubated for 30-60 min at 37° C. […] The cells were incubated with moderate agitation for 1 h at 27° C., washed twice with ice-cold PBS, harvested by trypsinization, and measured for radioactivity on the gamma counter. Data were analyzed using nonlinear regression (one binding site model for competition assay) with GraphPad Prism 8.
In vitro competition binding assays were performed according to the procedure outlined in Example 1.

T1 sequence (P30550 whole entry): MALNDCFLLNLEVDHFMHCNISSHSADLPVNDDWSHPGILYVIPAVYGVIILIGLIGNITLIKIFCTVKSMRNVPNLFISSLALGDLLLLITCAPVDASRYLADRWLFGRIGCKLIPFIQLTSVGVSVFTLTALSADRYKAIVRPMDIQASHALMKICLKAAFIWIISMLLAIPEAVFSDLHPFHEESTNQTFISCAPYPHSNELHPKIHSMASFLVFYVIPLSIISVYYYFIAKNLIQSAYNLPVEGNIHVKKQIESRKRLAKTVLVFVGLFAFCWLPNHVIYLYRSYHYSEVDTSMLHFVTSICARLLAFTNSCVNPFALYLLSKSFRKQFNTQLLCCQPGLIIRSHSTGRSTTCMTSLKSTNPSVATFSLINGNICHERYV

Structure (SMILES)	Ki [µM]
CC(C)C[C@@H](CN1CSC[C@H]1C(N)=O)NC(=O)[C@H](Cc1c[nH]cn1)NC(=O)CNC(=O)[C@@H](NC(=O)[C@H](C)NC(=O)[C@H](Cc1c[nH]c2ccccc12)NC(=O)[C@H](CCC(N)=O)NC(=O)[C@H]1Cc2c([nH]c3ccccc23)CN1C(=O)CN1CCC(NC(=O)CN2CCN(CC(=O)O)CCN(CC(=O)O)CCN(CC(=O)O)CC2)CC1)C(C)C [LW01061, DOTA-Pip-D-Tpi-Gln-Trp-Ala-Val-Gly-His-Leu-ψ-Thz-NH2]	> 0.4
CC(C)C[C@H](NC(=O)[C@H](Cc1cnc[nH]1)NC(=O)CNC(=O)[C@@H](NC(=O)[C@H](C)NC(=O)[C@H](Cc1c[nH]c2ccccc12)NC(=O)[C@H](CCC(N)=O)NC(=O)[C@H](N)Cc1ccccc1)C(C)(C)C)C(=O)N1CSC[C@H]1C(N)=O [LW01080, D-Phe-Gln-Trp-Ala-Tle-Gly-His-Leu-Thz-NH2]	0.00356
CC(C)C[C@H](NC(=O)[C@H](Cc1cnc[nH]1)NC(=O)CNC(=O)[C@@H](NC(=O)[C@H](C)NC(=O)[C@H](Cc1c[nH]c2ccccc12)NC(=O)[C@H](CCC(N)=O)NC(=O)[C@H](N)Cc1ccccc1)C(C)C)C(=O)N1CSC[C@H]1C(N)=O [LW01085]	0.00877
CC(C)C[C@H](NC(=O)[C@H](Cc1cnc[nH]1)N(C)C(=O)CNC(=O)[C@@H](NC(=O)[C@H](C)NC(=O)[C@H](Cc1c[nH]c2ccccc12)NC(=O)[C@H](CCC(N)=O)NC(=O)[C@H](N)Cc1ccccc1)C(C)C)C(=O)N1CSC[C@H]1C(N)=O [LW01088, D-Phe-Gln-Trp-Ala-Val-Gly-NMe-His-Leu-Thz-NH2]	0.009
CC(C)C[C@H](NC(=O)[C@H](Cc1cnc[nH]1)NC(=O)CNC(=O)[C@@H](NC(=O)[C@H](C)NC(=O)[C@H](Cc1cn(C)c2ccccc12)NC(=O)[C@H](CCC(N)=O)NC(=O)[C@H](N)Cc1ccccc1)C(C)C)C(=O)N1CSC[C@H]1C(N)=O [LW01136]	0.0357
CC(C)C[C@H](NC(=O)[C@H](Cc1c[nH]cn1)NC(=O)CNC(=O)[C@@H](NC(=O)[C@H](C)NC(=O)[C@H](Cc1c[nH]c2ccc(F)cc12)NC(=O)[C@H](CCC(N)=O)NC(=O)[C@H](N)Cc1ccccc1)C(C)C)C(=O)N1CSC[C@H]1C(N)=O [LW01166]	0.0179
CC(C)C[C@H](NC(=O)[C@H](Cc1c[nH]cn1)NC(=O)CNC(=O)[C@@H](NC(=O)[C@H](C)NC(=O)[C@H](Cc1c[nH]c2cc(F)ccc12)NC(=O)[C@H](CCC(N)=O)NC(=O)[C@H](N)Cc1ccccc1)C(C)C)C(=O)N1CSC[C@H]1C(N)=O [LW01175]	0.0469
CC(C)C[C@H](NC(=O)[C@H](Cc1c[nH]cn1)NC(=O)CNC(=O)[C@@H](NC(=O)[C@H](C)NC(=O)[C@H](Cc1c[nH]c2c(F)cccc12)NC(=O)[C@H](CCC(N)=O)NC(=O)[C@H](N)Cc1ccccc1)C(C)C)C(=O)N1CSC[C@H]1C(N)=O [LW01177, D-Phe-Gln-7-F-Trp-Ala-Val-Gly-His-Leu-Thz-NH2]	0.00938
CC(C)C[C@H](NC(=O)[C@H](Cc1c[nH]cn1)NC(=O)CNC(=O)[C@@H](NC(=O)[C@H](C)NC(=O)[C@H](Cc1c[nH]c2cccc(F)c12)NC(=O)[C@H](CCC(N)=O)NC(=O)[C@H](N)Cc1ccccc1)C(C)C)C(=O)N1CSC[C@H]1C(N)=O [LW01180]	0.0434
